Reference: US8067445B2, “N,N-disubstituted aminoalkylbiphenyl antagonists of prostaglandin D2 receptors” (Panmira Pharmaceuticals, LLC, priority 2008, dated 2011)

Biological target: T1, human DP1 receptor (Homo sapiens, UniProt Q13258)
T1 construct: tissue Biological Specialty Corporation; host or cells: human platelet membranes
T1 sequence (Q13258 1-359): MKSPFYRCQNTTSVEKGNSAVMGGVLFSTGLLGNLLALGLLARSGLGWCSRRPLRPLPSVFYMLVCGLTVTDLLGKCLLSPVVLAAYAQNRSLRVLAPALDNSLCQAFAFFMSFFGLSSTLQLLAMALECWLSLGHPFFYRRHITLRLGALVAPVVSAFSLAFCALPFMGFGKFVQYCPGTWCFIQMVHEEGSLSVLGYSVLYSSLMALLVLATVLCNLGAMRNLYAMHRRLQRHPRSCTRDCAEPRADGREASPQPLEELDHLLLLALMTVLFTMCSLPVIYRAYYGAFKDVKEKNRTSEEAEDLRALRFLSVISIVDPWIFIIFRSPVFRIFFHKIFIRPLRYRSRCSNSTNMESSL
Assay: DP1 radioligand binding assay ([3H]BWA868C, platelet membranes)
Conditions: [3H]BWA868C binding, human platelet membranes; read-out: hDP1
Procedure: The ability of a compound to bind to the human DPI receptor was evaluated via a radioligand membrane binding assay using the DP1 selective synthetic ligand [^311]BWA868C. Packed human platelets (Biological Specialty Corporation), were resuspended in 6 volumes of Hepes/HBSS buffer (10 mM Hepes, 1 mM DTT in Hanks Balanced Salt Solution (HBSS)), lysed and centrifuged at 75,000×g to pellet the membranes. Membranes were resuspended in Hepes/HBSS buffer to approximately 12 mg protein/ml. Membranes (20 μg protein/well) are incubated in 96-well plates with 2 nM [^3H]BWA868C and test compound in Assay Buffer (50 mM Hepes, 10 mM MnCl2, 1 mM EDTA, plus or minus 0.2% human serum albumin, pH 7.4) for 60 minutes at room temperature. The reactions are terminated by rapid filtration through Whatman GF/C glass fibre filter plates. The filter plates were pre-soaked in 0.33% polyethylenimine for 30 minutes at room temperature then washed in Wash Buffer (50 mM Hepes, 0.5 M NaCl pH 7.4) prior to harvesting. After harvesting, the filter plates are washed 3 times with 1 ml cold Wash Buffer then dried. Scintillant is then added to the plates and the radioactivity retained on the filters is determined on a Packard TopCount (Perkin Elmer). Specific binding is determined as total radioactive binding minus non-specific binding in the presence of 10 μM BW A868C. IC50s were determined using GraphPad prism analysis of drug titration curves.

Structure (SMILES)	IC50 [µM]
CCN(Cc1cc(C(F)(F)F)ccc1-c1cc(CC(=O)O)ccc1OC)C(=O)OC(C)c1ccc(Cl)cc1 (stereo not drawn) [Compound 1-44, [2′-({[1-(4-Chloro-phenyl)-ethoxycarbonyl]-ethyl-amino}-methyl)-6-methoxy-4′-trifluoromethyl-biphenyl-3-yl]-acetic acid]	1 to 30
CCN(Cc1cc(C(F)(F)F)ccc1-c1cc(CC(=O)O)ccc1OC)C(=O)C(C)Oc1ccccc1 (stereo not drawn) [Compound 1-45, (2′-{[Ethyl-(2-phenoxy-propionyl)-amino]-methyl}-6-methoxy-4′-trifluoromethyl-biphenyl-3-yl)-acetic acid]	1 to 30
CCN(Cc1cc(C(F)(F)F)ccc1-c1cc(CC(=O)O)ccc1OC)C(=O)COC [Compound 1-46, (2′-{[Ethyl-(2-methoxy-acetyl)-amino]-methyl}-6-methoxy-4′-trifluoromethyl-biphenyl-3-yl)-acetic acid]	1 to 30
CCN(Cc1cc(C(F)(F)F)ccc1-c1cc(CC(=O)O)ccc1OC)C(=O)COc1ccccc1 [Compound 1-48, (2′-{[Ethyl-(2-phenoxy-acetyl)-amino]-methyl}-6-methoxy-4′-trifluoromethyl-biphenyl-3-yl)-acetic acid]	1 to 30
CCN(Cc1cc(C(F)(F)F)ccc1-c1cc(CC(=O)O)ccc1OC)C(=O)COCc1ccccc1 [Compound 1-92, (2′-{[(2-Benzyloxy-acetyl)-ethyl-amino]-methyl}-6-methoxy-4′-trifluoromethyl-biphenyl-3-yl)-acetic acid]	1 to 30
CCN(Cc1cc(C(F)(F)F)ccc1-c1cc(CC(=O)O)ccc1OC)C(=O)COc1ccc(Cl)cc1 [Compound 1-93, [2′-({[2-(4-Chloro-phenoxy)-acetyl]-ethyl-amino}-methyl)-6-methoxy-4′-trifluoromethyl-biphenyl-3-yl]-acetic acid]	1 to 30
CCN(Cc1ccccc1)C(=O)N(CC)Cc1cc(C(F)(F)F)ccc1-c1cc(CC(=O)O)ccc1OC [Compound 1-94, [2′-(3-Benzyl-1,3-diethyl-ureidomethyl)-6-methoxy-4′-trifluoromethyl-biphenyl-3-yl]-acetic acid]	1 to 30
CCN(Cc1cc(C(F)(F)F)ccc1-c1cc(CC(=O)O)ccc1OC)C(=O)NCc1ccccc1 [Compound 1-96, [2′-(3-Benzyl-1-ethyl-ureidomethyl)-6-methoxy-4′-trifluoromethyl-biphenyl-3-yl]-acetic acid]	1 to 30
CCN(Cc1cc(C(F)(F)F)ccc1-c1cc(CC(=O)O)ccc1Cl)C(=O)OCc1ccccc1 [Compound 1-110, {2′-[(Benzyloxycarbonyl-ethyl-amino)-methyl]-6-chloro-4′-trifluoromethyl-biphenyl-3-yl}-acetic acid]	1 to 30
CCN(Cc1cc(C(F)(F)F)ccc1-c1cc(CC(=O)O)ccc1OC)C(=O)C(C)(C)Oc1ccc(Cl)cc1 [Compound 1-118, [2′-({[2-(4-Chloro-phenoxy)-2-methyl-propionyl]-ethyl-amino}-methyl)-6-methoxy-4′-trifluoromethyl-biphenyl-3-yl]-acetic acid]	1 to 30
CCOc1ccc(CC(=O)O)cc1-c1ccc(C(F)(F)F)cc1CN(CC)C(=O)OCc1ccccc1 [Compound 1-129, {2′-[(Benzyloxycarbonyl-ethyl-amino)-methyl]-6-ethoxy-4′-trifluoromethyl-biphenyl-3-yl}-acetic acid]	1 to 30
CCN(Cc1cc(C(F)(F)F)ccc1-c1cc(CC(=O)O)ccc1OC)C(=O)NCc1ccc(Cl)c(Cl)c1 [Compound 1-152, {2′-[3-(3,4-Dichloro-benzyl)-1-ethyl-ureidomethyl]-6-methoxy-4′-trifluoromethyl-biphenyl-3-yl}-acetic acid]	1 to 30
CCN(Cc1cc(NC(C)=O)ccc1-c1cc(CC(=O)O)ccc1OC)C(=O)OCc1ccccc1 [Compound 1-153, {4′-Acetylamino-2′-[(benzyloxycarbonyl-ethyl-amino)-methyl]-6-methoxy-biphenyl-3-yl}-acetic acid]	1 to 30
CCN(Cc1cc(NS(C)(=O)=O)ccc1-c1cc(CC(=O)O)ccc1OC)C(=O)OCc1ccccc1 [Compound 1-155, {2′-[(Benzyloxycarbonyl-ethyl-amino)-methyl]-4′-methanesulfonylamino-6-methoxy-biphenyl-3-yl}-acetic acid]	1 to 30
CCN(Cc1cc(C(F)(F)F)ccc1-c1cc(CC(=O)O)ccc1OC)C(=O)NCc1cc(Cl)cc(Cl)c1 [Compound 1-165, {2′-[3-(3,5-Dichloro-benzyl)-1-ethyl-ureidomethyl]-6-methoxy-4′-trifluoromethyl-biphenyl-3-yl}-acetic acid]	1 to 30
CCN(Cc1cc(C(F)(F)F)ccc1-c1cc(CC(=O)O)ccc1OC)C(=O)NCc1ccc(F)cc1 [Compound 1-176, {2′-[1-Ethyl-3-(4-fluoro-benzyl)-ureidomethyl]-6-methoxy-4′-trifluoromethyl-biphenyl-3-yl}-acetic acid]	1 to 30
CCN(Cc1cc(C(F)(F)F)ccc1-c1cc(CC(=O)O)ccc1OC)C(=O)NCc1cccc(Cl)c1 [Compound 1-177, {2′-[3-(3-Chloro-benzyl)-1-ethyl-ureidomethyl]-6-methoxy-4′-trifluoromethyl-biphenyl-3-yl}-acetic acid]	1 to 30
CCN(Cc1cc(C(F)(F)F)ccc1-c1cc(CC(=O)O)ccc1OC)C(=O)NCc1cc(F)cc(F)c1 [Compound 1-178, {2′-[3-(3,5-Difluoro-benzyl)-1-ethyl-ureidomethyl]-6-methoxy-4′-trifluoromethyl-biphenyl-3-yl}-acetic acid]	1 to 30
CCN(Cc1cc(C(F)(F)F)ccc1-c1cc(CC(=O)O)ccc1OC)C(=O)N[C@H](C)c1ccc(Cl)cc1 [Compound 1-179, (2′-{3-[(R)-1-(4-Chloro-phenyl)-ethyl]-1-ethyl-ureidomethyl}-6-methoxy-4′-trifluoromethyl-biphenyl-3-yl)-acetic acid]	1 to 30
CCN(Cc1cc(C(F)(F)F)ccc1-c1cc(CC(=O)O)ccc1OC)C(=O)N[C@@H](C)c1ccc(Cl)cc1 [Compound 1-180, (2′-{3-[(S)-1-(4-Chloro-phenyl)-ethyl]-1-ethyl-ureidomethyl}-6-methoxy-4′-trifluoromethyl-biphenyl-3-yl)-acetic acid]	1 to 30
CCNC(=O)N(CC)Cc1cc(C(F)(F)F)ccc1-c1cc(CC(=O)O)ccc1OC [Compound 1-181, [2′-(1,3-Diethyl-ureidomethyl)-6-methoxy-4′-trifluoromethyl-biphenyl-3-yl]-acetic acid]	1 to 30
CCN(Cc1cc(F)ccc1-c1cc(CC(=O)O)ccc1OC)C(=O)OCc1ccccc1 [Compound 1-183, {2′-[(Benzyloxycarbonyl-ethyl-amino)-methyl]-4′-fluoro-6-methoxy-biphenyl-3-yl}-acetic acid]	1 to 30
CCN(Cc1cc(F)ccc1-c1cc(CC(=O)O)ccc1OC)C(C)=O [Compound 1-184, {2′-[(Acetyl-ethyl-amino)-methyl]-4′-fluoro-6-methoxy-biphenyl-3-yl}-acetic acid]	1 to 30
CCN(Cc1cc(F)ccc1-c1cc(CC(=O)O)ccc1OC)C(=O)NCc1ccc(Cl)cc1 [Compound 1-185, {2′-[3-(4-Chloro-benzyl)-1-ethyl-ureidomethyl]-4′-fluoro-6-methoxy-biphenyl-3-yl}-acetic acid]	1 to 30
CCN(Cc1cc(F)ccc1-c1cc(CC(=O)O)ccc1OC)C(=O)C1CC1 [Compound 1-186, {2′-[(Cyclopropanecarbonyl-ethyl-amino)-methyl]-4′-fluoro-6-methoxy-biphenyl-3-yl}-acetic acid]	1 to 30
CCN(Cc1cc(F)ccc1-c1cc(CC(=O)O)ccc1OC)C(=O)NCc1ccccc1 [Compound 1-187, [2′-(3-Benzyl-1-ethyl-ureidomethyl)-4′-fluoro-6-methoxy-biphenyl-3-yl]-acetic acid]	1 to 30
O=C(O)CCn1c2c(c3ccccc31)C[C@H](NS(=O)(=O)c1ccc(F)cc1)CC2 [Ramatroban, reference compound]	1 to 30
